This assay can be described thus: tasting of LC-MS fractions of the product of Example 1. It counts as in vivo. As to conditions: fractions of the Example 1 product, content shown by 1H NMR. The protocol:
30 g of ethyl lactate and 10 g of GMP were thoroughly mixed in 90 g of glycerol to obtain a clear solution. The mixture was heated under stirring at 120° C. for 1 hour. A white precipitate was formed at the end of the heating period. The mixture was cooled to 70° C. and 100 g of isopropyl alcohol was added followed by stirring. Next, the mixture was filtered over a glass filter and the filter residue was washed three times with 300 g isopropyl alcohol. Thus, 12 g of an almost white powder was obtained. The main taste components of the obtained product were identified using LC-MS and tasting different fractions.

In the case of O-lactoyl GMP, the “taste of the fractions containing the substance” value is ““long-lasting” and “kokumi””.
As for `CC(O)C(=O)Nc1nc2c(ncn2[C@@H]2O[C@H](COP(=O)(O)O)[C@@H](O)[C@H]2O)c(=O)[nH]1` (some centres unmarked) [N-lactoyl GMP], the “taste of the fractions containing the substance” value was ““long-lasting” and “kokumi””.
